{
  "source": "patent US10066204B2",
  "about": "“Chemically labile peptide-presenting surfaces for cellular self-assembly” (Wisconsin Alumni Research Foundation, priority 2013, dated 2018)",
  "key": {"hESC (H1)": {"system": "hESC (H1)", "conditions": "for cell adhesion of the hESC monolayer by adhesion ligand on the array spot: FIG. 2B/2C", "protocol": "Gold slides were placed into a 150 mm glass Petri dish, covered with EtOH and sonicated for ˜1 minute using an ultrasonic bath (Bransonic 1510, Branson, Danbury, Conn.). Sonicated gold chips were then rinsed with EtOH and blown dry with N2. […] For spot shape, elastomeric stencils with arrays in the shape of circles, ovals, and oval cross were placed on a bare gold surface to form an array of wells having these shapes on the gold substrate. Wells were then filled with 1 mM ethanolic alkanethiolate solution and incubated for 10 minutes in a chamber containing a laboratory wipe soaked in ethanol to prevent evaporation during local SAM formation. Alkanethiolate solutions were then aspirated and wells were rinsed with DIUF H2O. Carboxylate groups were then converted to active ester groups by adding a solution of 100 mM NHS and 250 mM EDC in DIUF H2O pH 5.5 to wells and incubated for 10 minutes. After an additional rinse with DIUF H2O, 300 μM solutions of […] (SEQ ID NO: 5; commercially available from GenScript, Piscataway, N.J.) or […] (SEQ ID NO: 6; commercially available from GenScript, Piscataway, N.J.) in PBS and pH 7.4 were added to each well and incubated for 1 hour in a humidity controlled chamber to covalently couple peptides to each array spot. After a final rinse in DIUF H2O, regions surrounding array spots were backfilled with HS—C11-EG3-OH. This was accomplished by submerging the gold substrate and attached elastomeric stencil in an aqueous 0.1 mM HS—C11-EG3-OH solution (pH 2.0), removing the stencil, and incubating for 10 minutes. Following backfilling, the array was rinsed with 0.1 wt % SDS in DIUF H2O, DIUF H2O, and EtOH and then dried under a stream of N2. Arrays were stored in sterile DIUF H2O at 4° C. and used within 24 hours.\nPluripotent stem cells were seeded on arrays at a density of 10^5 cells/cm^2. […] Colonies that spontaneously detached from SAM spots were also harvested. Colonies were analyzed for Oct 3/4 and Nanog expression by immunofluorescence using DAPI to stain nuclei.\nThe concentration of the integrin adhesion peptides […] (SEQ ID NO: 1) and cyclic RGD (SEQ ID NO: 4) on the array spot was varied between 2% and 10% by the fraction of COOH groups functionalized with peptides present at the spot among background OH functionalities.\nAfter initial attachment of the cells to the glycosaminoglycan binding peptide […]\nSpecifically, a 1:1 functionalization with cyclic RGD (SEQ ID NO: 4) and […]"}, "[1]": {"system": "hESC monolayers (H1 hESC line)", "conditions": "for effect of soluble peptide on kinetics of aggregate assembly: 0.1 mM soluble peptide in culture media; for change in hESC colony projected area (indicative of aggregate self-assembly): both 5% COOH and 0.5% COOH SAMs", "protocol": "Gold slides were placed into a 150 mm glass Petri dish, covered with EtOH and sonicated for 2 minutes using an ultrasonic bath (Bransonic 1510, Branson, Danbury, Conn.). Sonicated gold chips were then rinsed with EtOH and blown dry with N2. […] Wells were then filled with 1 mM ethanolic alkanethiolate solution and incubated for approximately 10 minutes at room temperature in a chamber containing a laboratory wipe soaked in ethanol to prevent evaporation during local SAM formation. Alkanethiolate solutions were then aspirated and wells were rinsed with DIUF H2O. Carboxylate groups were then converted to active ester groups by adding a solution of 100 mM NHS and 250 mM EDC (in pH 5.5 DIUF H2O) to wells and incubating for 15 minutes. After an additional rinse with DIUF H2O, 300 μM solutions of peptide(s) in pH 7.4 PBS were added to each well and incubated for 1 hour in a humidity-controlled chamber at room temperature to covalently couple peptides to each array spot. After a final rinse in DIUF H2O, regions surrounding array spots were backfilled with HS—C11-EG3-OH. This was accomplished by submerging the gold substrate and attached elastomeric stencil in an aqueous 0.1 mM HS—C11-EG3-OH solution (pH 2.0), removing the stencil, and incubating for 10 minutes. Following backfilling, the array was rinsed with 0.1 wt % SDS in DIUF H2O, DIUF H2O, and EtOH, and then dried under a stream of N2. Arrays were stored away from light in diH2O at room temperature and used within 24 hours.\nPluripotent stem cells (H1 hESC line) were seeded on arrays at a density of approximately 2×10^5 cells/cm^2 to achieve confluent monolayers within 4 hours.\n(§1) Time lapse images were analyzed using edge detection software to track projected area of colonies with respect to initial colony area over time. A t50 of self-assembly was defined as the length of time required for a given patterned cell monolayer to reach 50% of its original 2D projected area, as assessed by automated edge detection. This metric is used throughout this specification to describe differences in the kinetics of aggregate self-assembly between different cell types and in different conditions."}, "hESCs (H1 line)": {"system": "hESCs (H1 line)", "conditions": "EBs from 5% SAMs, 24 hours post-assembly"}, "hESC monolayers [2]": {"system": "hESC monolayers", "conditions": "5% SAMs, circular spots of 1.2 mm diameter", "quoted_text": "Polymer stencils containing arrays of wells were created using soft lithography. Master molds containing arrays of 1.2 mm, 1.8 mm, and 2.4 mm diameter circular posts or oval-shaped or quatrefoil-shaped posts were fabricated from SU-8 (Microchem, Newton, Mass.) spin-coated silicon wafers using conventional photolithography techniques. Polydimethylsiloxane (PDMS) (Sylgard 184, Dow Corning, Midland, Mich.) was prepared by mixing a 10:1 ratio of base:curing agent (w/w) followed by degassing for approximately 45 minutes. The degassed mixture was cast over the mold and cured for 6 hours at 80° C. Following curing, PDMS stencils were removed from molds and cleaned in hexane using overnight Soxhlet extraction."}, "hMSC monolayers": {"system": "hMSC monolayers", "protocol": "as §1\nhMSCs or hDFs were seeded on arrays at a density of ˜1×10^5 cells/cm^2 to achieve confluent monolayers within 4 hours. Cells were cultured on SAMs in αMEM media containing 10% fetal bovine serum (FBS) for 2 hours after seeding. At this time, SAM arrays were rinsed in basal medium to remove nonspecifically adhered cells and replaced in fresh αMEM+10% FBS.\nIn this Example, the beginning of self-assembly is characterized by the time point at which an evident decrease in projected area of the cell monolayer first occurs. The completion of self-assembly is considered the time point at which no further decreases in monolayer projected area occur, and is marked by the appearance of a plateau in graphical traces of monolayer projected area (see FIG. 28A)."}, "hESC monolayers [3]": {"system": "hESC monolayers", "conditions": "5% SAMs", "protocol": "Colonies were analyzed for Oct4 and Nanog expression by immunofluorescence using DAPI to stain nuclei.\nSelf-assembled EBs formed from largely pluripotent 2D hESC populations. hESC monolayers cultured on array spots were stained for pluripotency markers Oct4 and Nanog, as well as DAPI to identify cell nuclei. […] Quantification of positive staining for Oct4 and Nanog, relative to number of cells as quantified by DAPI staining, is shown in FIG. 25B. […] Nanog was expressed by 89% and 93% of hESCs in monolayers at 4 hours and 24 hours, respectively."}},
  "note": "Like-named read-outs stand apart in the source and are kept apart here.",
  "data": [
    {"substance": "CGKKQRFRHRNRKG", "values": [
      {"measurement": "cell adhesion of the hESC monolayer by adhesion ligand on the array spot", "setting": "hESC (H1)", "value": "significantly less cell attachment"},
      {"measurement": "time until cells detached after initial attachment", "setting": "hESC (H1); array spots presenting the peptide", "value": "≤ 12", "unit": "h"}
    ]},
    {"substance": "GWGGRGDSP", "values": [
      {"measurement": "cell adhesion of the hESC monolayer by adhesion ligand on the array spot", "setting": "hESC (H1)", "value": "best cell adhesion"}
    ]},
    {"substance": "GWGGRGESP [reference compound]", "values": [
      {"measurement": "cell adhesion of the hESC monolayer by adhesion ligand on the array spot", "setting": "hESC (H1)", "value": "No significant differences"}
    ]},
    {"substance": "KRTGQYKL", "values": [
      {"measurement": "cell adhesion of the hESC monolayer by adhesion ligand on the array spot", "setting": "hESC (H1)", "value": "no significant adhesion"}
    ]},
    {"substance": "cyclo(RADFDK) [reference compound]", "values": [
      {"measurement": "effect of soluble peptide on kinetics of aggregate assembly", "setting": "[1]; hESC on 5% cyclo(RGDFDC) SAMs", "value": "no evident effect"}
    ]},
    {"substance": "cyclo(RGDFDC)", "values": [
      {"measurement": "Nanog+ cells dissociated from EBs", "setting": "hESCs (H1 line)", "value": "approximately 91%"},
      {"measurement": "Oct4+ cells dissociated from EBs", "setting": "hESCs (H1 line)", "value": "approximately 99%"},
      {"measurement": "time to form self-assembled EBs", "setting": "hESC monolayers [2]", "value": "≤ 72", "unit": "h"},
      {"measurement": "hESC cell adhesion as a function of adhesion ligand density", "setting": "hESC (H1); 2% COOH fraction compared to 5% COOH, 4 to 48 hours in culture", "value": "significantly lower cell adhesion"},
      {"measurement": "hESC cell adhesion as a function of adhesion ligand density", "setting": "hESC (H1); 10% COOH fraction compared to 5% COOH", "value": "did not lead to an improved attachment"},
      {"measurement": "cell adhesion of the hESC monolayer by adhesion ligand on the array spot", "setting": "hESC (H1)", "value": "best cell adhesion"},
      {"measurement": "beginning of self-assembly after initial seeding", "setting": "hMSC monolayers", "value": "≤ 24", "unit": "h"},
      {"measurement": "completion of self-assembly after initial seeding", "setting": "hMSC monolayers", "value": "≤ 36", "unit": "h"},
      {"measurement": "t50 of self-assembly of hMSCs", "setting": "hMSC monolayers", "value": "approximately 30 hours"},
      {"measurement": "hESCs in monolayers expressing Nanog", "setting": "hESC monolayers [3]; 4 hours after seeding", "value": 89, "unit": "%"},
      {"measurement": "hESCs in monolayers expressing Oct4", "setting": "hESC monolayers [3]; 4 hours after seeding", "value": "greater than 97%"},
      {"measurement": "hESCs in monolayers expressing Nanog", "setting": "hESC monolayers [3]; 24 hours after seeding", "value": 93, "unit": "%"},
      {"measurement": "hESCs in monolayers expressing Oct4", "setting": "hESC monolayers [3]; 24 hours after seeding", "value": 93, "unit": "%"},
      {"measurement": "effect of soluble peptide on kinetics of aggregate assembly", "setting": "[1]; hESC on 5% cyclo(RGDFDC) SAMs", "value": "most rapid aggregate assembly"},
      {"measurement": "time of forming three-dimensional cellular aggregates floating in suspension", "setting": "[1]; 5% COOH SAMs", "value": "72 to 96", "unit": "h"},
      {"measurement": "effect of soluble peptide on kinetics of aggregate assembly versus control", "setting": "[1]; […] soluble peptide in culture media, hESC on 5% cyclo(RGDFDC) SAMs", "value": "faster aggregate assembly"},
      {"measurement": "change in hESC colony projected area (indicative of aggregate self-assembly)", "setting": "[1]", "value": "evident decreases"},
      {"measurement": "t50 of self-assembly", "setting": "[1]; hESC, 0.01% peptide SAMs", "value": "approximately 14 hours"},
      {"measurement": "t50 of self-assembly", "setting": "[1]; hESC, 0.5% COOH SAMs", "value": "approximately 22 hours"},
      {"measurement": "beginning of the self-assembly process after initial seeding", "setting": "[1]; hESC, 5% COOH SAMs", "value": "40 to 48", "unit": "h"},
      {"measurement": "completion of the self-assembly process after initial seeding", "setting": "[1]; hESC, 5% SAMs", "value": "≤ 72", "unit": "h"},
      {"measurement": "t50 of self-assembly", "setting": "[1]; hESC, 5% peptide SAMs", "value": "approximately 45 hours"}
    ]},
    {"substance": "cyclo(RGDFDK) [reference compound]", "values": [
      {"measurement": "cellular self-assembly behavior of hESC monolayers", "setting": "[1]; 5% COOH SAMs", "value": "no cellular self-assembly behavior"},
      {"measurement": "change in hESC colony projected area (indicative of aggregate self-assembly)", "setting": "[1]", "value": "no such decreases"},
      {"measurement": "detachment of hESC monolayers", "setting": "[1]; over 96 hours", "value": "no observable detachment"}
    ]}
  ]
}
